Results on 2 compounds are retold here after US7972629B2, “Product comprising a combination of milk serum apoproteins and free fatty acids” (Westgate Biological Ltd., priority 2001, dated 2011).

Common to all, as to type: cell-based
For assay [1], the system named is methicillin resistant Staphylococcus aureus (MRSA). Put plainly: Adhesion of MRSA to Buccal Epithelial Cells. The following applies: 5 mg/ml, Diagram 11. Here is the method:
The basis of the technique involves exposing a standardised (known) number of yeast or bacteria to a standardised substrate (number of BEC's), allowing a 60 minute incubation period for the cells to adhere and then filtering the combined population through a 10 micron nylon mesh. The mesh will retain BEC's and those yeast or bacteria adhering to them, non-adhering yeast or bacteria will be washed through, where they may be enumerated in the filtrate and expressed as a percentage of the original population not adhering; percent adherence being the inverse of this.
Fluorescent labelling of bacteria is conducted after adhesion (on those cells in the filtrate) using fluorescent dyes such as BCECF/AM (Calbiochem Biosciences Inc., La Jolla, Calif.) and Syto 13 (Molecular Probes, Oregon, USA). Labelling methods are as described by the manufacturers of the dyes. The amount of fluorescence is measured in a fluorimeter (Fluroscan from Lab-Systems, Helsinki, Finland) and is in direct relationship to the number of bacteria present.
(§1) The following general method may be used to measure adherence of the yeast Candida albicans to BEC and the inhibition of that adherence using the formulation of milk serum apoprotein(s) as described above. The same general method is suitable for measuring inhibition of adherence of Staphylococcus aureus to BEC's and also inhibition of adherence of Streptococcus mutans, with the exception that the substrate for Streptococcus mutans, is powdered hydroxylapatite available from Merck and used as a surrogate for dental enamel.
MRSA is routinely sub-cultured on blood agar and a single colony is used to inoculate a tube of Oxoid Brain Heart Infusion Broth as described in Methods and Materials above. After 8 hours, the innoculum is used in growth and adhesion assays using the methodologies described above.
MRSA adheres to BEC's, and these are used here in a manner similar to that described for Candida albicans. […] Bovine Serum Albumin is used as a ‘protein blank’ and this material has no effect on the adhesion of MRSA to BEC's.

In the next assay the test system is Streptococcus mutans. Put plainly: Adhesion of Streptococcus mutans to hydroxyapatite beads. The following applies: 0.8 mg/ml; saliva coated hydroxyapatite; Diagram 13.
Text: as §1
In measuring inhibition of adherence of Streptococcus mutans, hydroxyapatite powder from Merck was used as a surrogate for dental enamel. The test procedure is as described in Methods and Materials above, with the following modifications: 1 ml of fresh culture, adjusted to an optical density of 0.1 at 600 nm, is added to 5 mg of saliva coated hydroxyapatite beads; allowed to adhere for 1 hour; and centrifuged at slow speed to sediment the hydroxyapatite with adhering bacteria. The number of bacteria remaining in the supernatant are that percentage of the original population not adhering and are expressed as a percentage of the original population; the inverse being […].

The next assay concerns Candida albicans. Put plainly: Adhesion of Candida albicans to Buccal Epithelial Cells (adhesion assay). As to conditions: 1 mg/ml; yeast pre-treated 10 minutes; Diagram 8. The source says: Measurement of adhesion, and inhibition of the same, requires selection of a suitable substrate and a method of enumerating number of organisms adhering (or not) to that substrate. Most potential pathogenic organisms adhere to mucosal epithelial cells and a convenient source of a representative mucosal epithelial cell may be easily harvested from inside the cheek. Buccal epithelial cells (BEC's) are harvested by scraping the mucosal membranes in the mouth using a wooden tongue depresser as follows.
Standard wooden tongue depressers as used in clinical examination of the mouth are wrapped, in tin foil and autoclaved. […]
The basis of the technique involves exposing a standardised (known) number of yeast or bacteria to a standardised substrate (number of BEC's), allowing a 60 minute incubation period for the cells to adhere and then filtering the combined population through a 10 micron nylon mesh. The mesh will retain BEC's and those yeast or bacteria adhering to them, non-adhering yeast or bacteria will be washed through, where they may be enumerated in the filtrate and expressed as a percentage of the original population not adhering; percent adherence being the inverse of this. […]
Both the washed BEC's and the freshly grown washed yeast cells are counted microscopically and the concentrations adjusted such that the yeast is in the order of 1×10^5 and BEC's at 1×10^3. […]

As to `O=C([O-])CC(O)(CC(=O)[O-])C(=O)[O-].[Na+].[Na+].[Na+]` [sodium citrate], the entries for the “inhibition of adhesion of MRSA to Buccal Epithelial Cell” value in assay [1] and in assay [1] (listed as Sodium citrate) were “approximately 10%” and “no effect on adhesion”, respectively. In the assay with Streptococcus mutans, the “inhibition of adhesion of Streptococcus mutans to hydroxyapatite beads” value was ~10%.

Take “Bovine Serum Albumin: protein blank in Diagrams 8, 11 and 13”: the “inhibition of adhesion of Candida albicans to Buccal Epithelial Cell” value in the assay with Candida albicans is on record as 13%. Also, the “inhibition of adhesion of MRSA to Buccal Epithelial Cell” value in assay [1] is “no effect”. For the same compound, in the assay on Streptococcus mutans, the “inhibition of adhesion of Streptococcus mutans to hydroxyapatite beads” value is recorded as ~30%.
